Data reported in ChEMBL document CHEMBL1201862, “PubChem BioAssay data set” (2004).
Active and inactive are the calls of the source.

Assays:
[1] = target: Paired box protein Pax-8 (Homo sapiens, UniProt Q06710); test: inhibitors of PAX8-driven TPO luciferase reporter, dose response, RMG-I cells, cherry-pick (AID 687027); format: functional, cell-based;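 also: luciferase reporter driven by Pax8 target thyroperoxidase promoter measured by SteadyGlo luminescence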
[2] = intracellular Trypanosoma cruzi inhibitors in host cells – cell-based, plate reader, cherry-pick samples, set 3, dose response (AID 651818); format: functional;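 also: compounds incubated with infected cells for about four days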
[3] = NIH:OVCAR-3 ovarian cancer cell cytotoxicity, dose response, PAX8 inhibitor project, plate reader, dry powder samples (AID 743044); format: functional, cell-based
[4] = non-specific cell cytotoxicity, dose response, cytotoxicity control for PAX8 inhibitor project, plate reader, dry powder samples (AID 743021); format: functional, cell-based
[5] = P. falciparum Dd2 growth inhibitors, dose response, SYBR Green, dry powder samples, set 9 (AID 1159568); format: functional, cell-based
[6] = cytotoxicity in OVCAR8 ovarian cancer cells, dose response, PAX8 project, cell-based, plate reader, dry powder samples (AID 743197); format: functional; settings: OVCAR-8
[7] = IOSE-T80 ovarian epithelial cell cytotoxicity, dose response, cytotoxicity control for PAX8 inhibitor project, plate reader, dry powder samples (AID 743045); format: functional, cell-based
[8] = IGROV1 ovarian cancer cell cytotoxicity, dose response, PAX8 inhibitor project, plate reader, dry powder samples (AID 743043); format: functional, cell-based; settings: IGROV-1
[9] = HepG2 cell cytotoxicity, dose response, cytotoxicity control, plate reader, cherry-pick, antagonist series (AID 743416); format: functional, cell-based
[10] = target: T1, Caspase-3 (Homo sapiens, UniProt P42574); format: functional;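 also: Dose-response selectivity test against caspase-3 for candidate inhibitors of sentrin-specific proteases (SENPs)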
T1 sequence (P42574 whole entry): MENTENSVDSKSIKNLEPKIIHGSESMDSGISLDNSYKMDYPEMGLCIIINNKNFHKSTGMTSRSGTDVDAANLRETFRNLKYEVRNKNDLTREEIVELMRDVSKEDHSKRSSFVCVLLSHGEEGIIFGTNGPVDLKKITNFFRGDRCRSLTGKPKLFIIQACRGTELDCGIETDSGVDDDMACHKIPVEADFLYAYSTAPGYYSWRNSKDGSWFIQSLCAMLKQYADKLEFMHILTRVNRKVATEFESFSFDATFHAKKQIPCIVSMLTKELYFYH

[11] = target: T2, Sentrin-specific protease 7 (Homo sapiens, UniProt Q9BQF6); format: functional;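 also: Luminescence-based dose-response confirmation of ultra-high-throughput screening hits, measuring inhibition of SENP7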
T2 sequence (Q9BQF6 whole entry): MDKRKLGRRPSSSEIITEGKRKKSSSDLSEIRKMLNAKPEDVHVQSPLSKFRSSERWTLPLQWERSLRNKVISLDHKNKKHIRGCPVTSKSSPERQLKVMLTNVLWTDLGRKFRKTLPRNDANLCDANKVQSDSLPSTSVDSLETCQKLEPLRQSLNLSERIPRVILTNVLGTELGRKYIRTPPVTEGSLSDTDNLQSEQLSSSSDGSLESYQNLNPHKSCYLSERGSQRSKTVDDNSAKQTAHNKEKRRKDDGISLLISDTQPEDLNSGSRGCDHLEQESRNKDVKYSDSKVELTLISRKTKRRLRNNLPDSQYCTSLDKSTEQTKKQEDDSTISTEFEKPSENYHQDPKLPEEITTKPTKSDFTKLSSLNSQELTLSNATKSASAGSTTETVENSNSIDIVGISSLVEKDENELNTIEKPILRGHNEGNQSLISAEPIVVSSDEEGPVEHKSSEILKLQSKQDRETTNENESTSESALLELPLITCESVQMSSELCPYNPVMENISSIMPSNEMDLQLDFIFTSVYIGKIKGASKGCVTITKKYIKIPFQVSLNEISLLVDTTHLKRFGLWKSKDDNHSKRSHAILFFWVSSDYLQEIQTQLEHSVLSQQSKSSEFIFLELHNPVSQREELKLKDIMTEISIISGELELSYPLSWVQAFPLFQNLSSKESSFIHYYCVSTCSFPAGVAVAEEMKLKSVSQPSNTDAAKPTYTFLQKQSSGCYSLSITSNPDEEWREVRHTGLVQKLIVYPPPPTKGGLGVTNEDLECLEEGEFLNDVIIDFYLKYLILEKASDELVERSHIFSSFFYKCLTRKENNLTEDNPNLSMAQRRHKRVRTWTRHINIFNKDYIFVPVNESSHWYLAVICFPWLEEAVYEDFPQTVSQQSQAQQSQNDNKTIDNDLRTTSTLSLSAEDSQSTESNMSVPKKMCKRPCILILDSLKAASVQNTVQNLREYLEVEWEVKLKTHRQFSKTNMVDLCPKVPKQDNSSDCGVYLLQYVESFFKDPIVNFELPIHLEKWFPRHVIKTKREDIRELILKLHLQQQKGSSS

[12] = A549 cell cytotoxicity, dose response, cytotoxicity control, plate reader, cherry-pick, antagonist series (AID 743412); format: functional, cell-based
[13] = target: T3, Sentrin-specific protease 8 (Homo sapiens, UniProt Q96LD8); format: functional;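 also: luminescence read-out of SENP8 inhibition, dose-response confirmation following an ultra-high-throughput screen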
T3 sequence (Q96LD8 whole entry): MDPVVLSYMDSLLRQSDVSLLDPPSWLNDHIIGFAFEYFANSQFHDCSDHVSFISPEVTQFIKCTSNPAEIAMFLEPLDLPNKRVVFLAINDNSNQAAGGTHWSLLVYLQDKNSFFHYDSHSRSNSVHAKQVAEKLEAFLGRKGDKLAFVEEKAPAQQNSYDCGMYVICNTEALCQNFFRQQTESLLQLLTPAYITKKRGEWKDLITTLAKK

[14] = target: T4, Sentrin-specific protease 6 (Homo sapiens, UniProt Q9GZR1); format: functional;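 also: Luminescence-based dose-response confirmatory assay of SENP6 inhibition, following up an ultra-high-throughput screen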
T4 sequence (Q9GZR1 whole entry): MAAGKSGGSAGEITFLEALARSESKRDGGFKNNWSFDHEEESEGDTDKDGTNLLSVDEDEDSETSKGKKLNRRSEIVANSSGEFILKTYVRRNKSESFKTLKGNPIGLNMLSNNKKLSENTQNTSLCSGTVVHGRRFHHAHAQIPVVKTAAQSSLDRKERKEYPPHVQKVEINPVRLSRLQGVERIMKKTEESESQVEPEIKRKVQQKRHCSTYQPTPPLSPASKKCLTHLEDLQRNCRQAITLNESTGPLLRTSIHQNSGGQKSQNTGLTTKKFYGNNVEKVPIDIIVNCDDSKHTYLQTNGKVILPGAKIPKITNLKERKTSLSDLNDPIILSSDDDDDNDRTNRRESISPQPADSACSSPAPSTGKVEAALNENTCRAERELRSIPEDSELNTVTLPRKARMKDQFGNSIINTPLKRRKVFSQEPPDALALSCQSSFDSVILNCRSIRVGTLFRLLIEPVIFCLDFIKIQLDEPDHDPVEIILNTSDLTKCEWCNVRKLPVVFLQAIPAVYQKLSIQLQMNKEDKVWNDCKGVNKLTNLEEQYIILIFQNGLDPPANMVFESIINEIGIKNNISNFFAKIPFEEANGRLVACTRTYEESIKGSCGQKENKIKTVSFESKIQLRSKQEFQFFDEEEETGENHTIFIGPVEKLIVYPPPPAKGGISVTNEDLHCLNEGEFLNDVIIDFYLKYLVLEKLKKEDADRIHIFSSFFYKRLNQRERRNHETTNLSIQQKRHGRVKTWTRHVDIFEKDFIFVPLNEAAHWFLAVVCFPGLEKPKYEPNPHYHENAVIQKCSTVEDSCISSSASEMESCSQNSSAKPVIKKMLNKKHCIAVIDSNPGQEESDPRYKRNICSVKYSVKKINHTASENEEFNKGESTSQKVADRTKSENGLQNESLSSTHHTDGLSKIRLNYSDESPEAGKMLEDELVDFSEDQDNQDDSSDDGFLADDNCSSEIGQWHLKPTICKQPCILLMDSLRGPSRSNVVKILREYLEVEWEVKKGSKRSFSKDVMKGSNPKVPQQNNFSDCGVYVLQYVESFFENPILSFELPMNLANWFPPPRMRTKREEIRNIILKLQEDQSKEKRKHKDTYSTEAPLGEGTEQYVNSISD

[15] = MC4R antagonists, dose response, counter-screen for LGR2 antagonist project, cell-based, plate reader, cherry pick (AID 743444); format: functional;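 also: transfected HEK 293 cells stimulated with alpha-MSH peptide; potency of inhibitors of the alpha-MSH evoked signal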
[16] = LGR2 antagonists, dose response, cell-based, HEK293, CRE-luciferase reporter, cherry pick, set 2 (AID 743343); format: functional;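 also: transfected cells were stimulated with diluted bursicon conditioned medium after compound addition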
[17] = target: T5, Polyadenylate-binding protein 1 (Homo sapiens, UniProt P11940); test: PABP1 MLLE–PAM2 interaction inhibitors, dose response, miRNA deadenylation inhibitor project, biochemical, fluorescence polarization, Cy5-PAM2 peptide, secondary (AID 602260); format: functional; settings: read-out: IC50_Mean
T5 sequence (P11940 whole entry): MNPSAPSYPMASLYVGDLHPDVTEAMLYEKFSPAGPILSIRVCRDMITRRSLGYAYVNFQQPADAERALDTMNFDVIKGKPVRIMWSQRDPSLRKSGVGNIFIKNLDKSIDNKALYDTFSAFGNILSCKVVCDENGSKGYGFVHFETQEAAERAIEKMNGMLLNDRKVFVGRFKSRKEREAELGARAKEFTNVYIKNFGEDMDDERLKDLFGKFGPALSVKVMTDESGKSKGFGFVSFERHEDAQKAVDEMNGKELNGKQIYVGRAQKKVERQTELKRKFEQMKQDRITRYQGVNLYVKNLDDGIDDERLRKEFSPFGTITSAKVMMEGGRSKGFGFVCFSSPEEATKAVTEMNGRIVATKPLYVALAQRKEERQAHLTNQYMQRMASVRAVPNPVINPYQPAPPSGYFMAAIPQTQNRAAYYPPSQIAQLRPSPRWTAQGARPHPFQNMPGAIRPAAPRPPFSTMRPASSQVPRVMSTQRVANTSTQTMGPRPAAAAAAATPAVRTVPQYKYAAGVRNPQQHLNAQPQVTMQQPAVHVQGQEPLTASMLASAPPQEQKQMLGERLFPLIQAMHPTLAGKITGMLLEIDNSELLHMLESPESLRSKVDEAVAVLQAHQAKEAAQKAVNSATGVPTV

[18] = target: T6, Estrogen receptor beta (Homo sapiens, UniProt Q92731);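 also: recombinant ER-beta bound to coactivator SRC1 peptide in presence of estradiol agonist; inhibitors block coactivator peptide binding and lower the FRET signal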
T6 sequence (Q92731 whole entry): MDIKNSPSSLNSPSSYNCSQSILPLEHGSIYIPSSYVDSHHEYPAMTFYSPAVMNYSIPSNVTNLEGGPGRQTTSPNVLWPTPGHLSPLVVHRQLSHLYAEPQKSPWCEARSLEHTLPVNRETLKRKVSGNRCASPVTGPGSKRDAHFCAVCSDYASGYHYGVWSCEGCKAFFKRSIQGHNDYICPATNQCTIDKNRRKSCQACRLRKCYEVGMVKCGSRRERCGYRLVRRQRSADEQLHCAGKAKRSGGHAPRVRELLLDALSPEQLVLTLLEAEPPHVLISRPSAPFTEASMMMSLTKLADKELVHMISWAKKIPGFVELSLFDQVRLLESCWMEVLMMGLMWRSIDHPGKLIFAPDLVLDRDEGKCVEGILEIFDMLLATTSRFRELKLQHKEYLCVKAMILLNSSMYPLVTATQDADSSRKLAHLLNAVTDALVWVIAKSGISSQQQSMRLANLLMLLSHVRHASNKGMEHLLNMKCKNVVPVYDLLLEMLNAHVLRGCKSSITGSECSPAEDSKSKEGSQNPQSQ

[19] = target: T6, Estrogen receptor beta; test: ERβ–SRC-3 coactivator interaction inhibitors, confirmation, orthogonal assay, biochemical, ELISA, streptavidin-HRP readout (AID 1060)
[20] = target: T5, Polyadenylate-binding protein 1; test: PABP1 MLLE–PAM2 binding inhibitor potency, dose response, biochemical, fluorescence polarization, FITC-PAM2 peptide (AID 602259); format: functional; settings: read-out: IC50_Mean
[21] = HeLa 2N DNA content increase, dose response, cell-based, IC50 (AID 1117349); format: functional
[22] = HeLa 4N DNA content increase, dose response, cell-based, IC50 (AID 1117351); format: functional
[23] = target: T7, Estrogen receptor (Homo sapiens, UniProt P03372);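 also: potency for inhibiting coactivator peptide recruitment to the receptor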
T7 sequence (P03372 whole entry): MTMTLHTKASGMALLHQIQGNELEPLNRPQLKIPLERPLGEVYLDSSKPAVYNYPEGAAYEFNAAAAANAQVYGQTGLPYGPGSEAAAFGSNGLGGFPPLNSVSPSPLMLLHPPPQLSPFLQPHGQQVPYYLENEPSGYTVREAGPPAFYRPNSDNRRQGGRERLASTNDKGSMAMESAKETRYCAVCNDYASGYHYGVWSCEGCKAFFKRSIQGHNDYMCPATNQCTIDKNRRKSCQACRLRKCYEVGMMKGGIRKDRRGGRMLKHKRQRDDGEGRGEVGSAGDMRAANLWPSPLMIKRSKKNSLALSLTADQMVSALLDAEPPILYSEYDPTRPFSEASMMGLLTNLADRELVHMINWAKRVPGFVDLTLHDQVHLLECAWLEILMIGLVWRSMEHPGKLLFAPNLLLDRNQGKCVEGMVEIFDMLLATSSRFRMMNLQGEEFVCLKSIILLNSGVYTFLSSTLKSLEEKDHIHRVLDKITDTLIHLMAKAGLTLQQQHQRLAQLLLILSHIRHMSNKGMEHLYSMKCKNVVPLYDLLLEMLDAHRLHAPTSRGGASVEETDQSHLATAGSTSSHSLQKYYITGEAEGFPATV

Paired box protein Pax-8, sequence (Q06710 whole entry): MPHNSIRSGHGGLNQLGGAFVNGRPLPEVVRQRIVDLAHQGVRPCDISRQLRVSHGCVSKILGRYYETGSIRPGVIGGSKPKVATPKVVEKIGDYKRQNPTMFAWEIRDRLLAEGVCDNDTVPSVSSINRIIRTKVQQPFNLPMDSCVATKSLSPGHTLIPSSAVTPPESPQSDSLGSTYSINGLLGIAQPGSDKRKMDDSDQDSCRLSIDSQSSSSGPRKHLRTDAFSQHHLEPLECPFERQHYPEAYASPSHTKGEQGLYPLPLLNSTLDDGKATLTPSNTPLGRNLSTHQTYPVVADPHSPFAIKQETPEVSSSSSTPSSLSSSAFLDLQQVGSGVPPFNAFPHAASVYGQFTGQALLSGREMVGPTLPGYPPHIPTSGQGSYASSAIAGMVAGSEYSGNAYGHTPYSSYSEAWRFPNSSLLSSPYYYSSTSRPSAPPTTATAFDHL

## COc1ccc(S(=O)(=O)N(C)C[C@H]2Oc3c(NC(=O)Nc4ccc(C(F)(F)F)cc4)cccc3C(=O)N([C@@H](C)CO)C[C@H]2C)cc1
[1]
  AC50: 7.04 µM (active)
[2]
  AC50: 7.67 µM (active)
[3]
  AC50: 66.2 µM (active)
[4]
  AC50: 51 µM (active)

## COc1ccc(-c2ccccc2[C@@H]2[C@@H](C#N)N(C(=O)NC3CCCCC3)[C@H]2CO)cc1
[5]
  AC50: 7.06 µM (active)

## Cc1ccc(S(=O)(=O)N(C)C[C@H]2Oc3cc(C#Cc4ccncc4)ccc3S(=O)(=O)N([C@@H](C)CO)C[C@H]2C)cc1
[1]
  AC50: 3.15 µM (active)
[6]
  AC50: 30.8 µM (active)
[3]
  AC50: 4.57 µM (active)
[7]
  AC50: 51.6 µM (active)
[8]
  AC50: 45.3 µM (active)

## COc1ccc(C(=O)Nc2ccc3ccccc3n2)c(OC)c1OC
[9]
  AC50: > 52 µM (inactive)
[10]
  IC50: 6.1 µM (active)
[11]
  IC50: 2.37 µM (active)
[12]
  AC50: > 52 µM (inactive)
[13]
  IC50: > 100 µM (inactive)
[14]
  IC50: 2.95 µM (active)
[15]
  AC50: 6.75 µM (active)
[16]
  AC50: 7.06 µM (active)

## Nc1nc(-c2ccco2)c(-c2ccco2)s1
[17]
  IC50: > 66 µM (inactive)
[18]
  IC50: > 50 µM (not active)
[19]
  IC50: 101 µM (not active)
[20]
  IC50: > 66 µM (inactive)

## CC(=O)Nc1ccn(C2COC(COC(=O)c3ccccc3)O2)c(=O)n1 (stereo not given)
[21]
  IC50: > 10 µM (inactive)
[22]
  IC50: > 10 µM (inactive)

## O=C(CSc1nnc(SCC(=O)c2ccco2)s1)c1ccco1
[18]
  IC50: 6.51 µM (active)
[23]
  IC50: 21.2 µM (active)
[19]
  IC50: > 109 µM (not active)

## O=S(=O)(NCC(O)COCc1ccco1)c1cccs1 (stereo not given)
[18]
  IC50: 20.6 µM (active)
[19]
  IC50: 14 µM (not active)

## O=S(=O)(c1cccs1)N1CCCCN2[C@H](CO)[C@H](c3ccc(/C=C/c4ccccc4)cc3)[C@H]2C1
[5]
  AC50: 3.42 µM (active)

## CO[C@@H]1[C@@H](OC)[C@H](C)[C@@](O)(CC(=O)O)O[C@H]1[C@H](C)[C@H]1O[C@@]2(CC[C@@](C)([C@H]3CC[C@@](C)([C@@H]4O[C@@H]([C@H]5O[C@](C)(O)[C@H](C)C[C@@H]5C)C[C@@H]4OC4C[C@H](OC)[C@@H](OC)[C@H](C)O4)O3)O2)C[C@H](O)[C@H]1C (stereo not given in full)
[21]
  IC50: > 10 µM (inactive)
[22]
  IC50: > 10 µM (inactive)

## C[C@@H]1CN([C@H](C)CO)C(=O)c2cccc(NC(=O)c3ccc(-c4nccs4)cc3)c2O[C@H]1CN(C)C(=O)Nc1ccc(C(F)(F)F)cc1
[5]
  AC50: 7.49 µM (active)

## C[C@@H]1CCCCO[C@@H](CN(C)S(=O)(=O)c2ccc(F)cc2)[C@@H](C)CN([C@@H](C)CO)C(=O)c2cc(N(C)C)ccc2O1
[5]
  AC50: 2.56 µM (active)

## O=C(Nc1ccc(F)cc1)N1C[C@@H]2N[C@H](C1)[C@@H]2c1ccc(/C=C/c2ccccc2)cc1
[1]
  AC50: 10.7 µM (active)
[6]
  AC50: 26 µM (active)
[4]
  AC50: 23.6 µM (active)

## CCOC(=O)Cc1cc(O)n2nc(-c3ccc(C)cc3)cc2n1
[18]
  IC50: 6.5 µM (active)
[23]
  IC50: 13.9 µM (active)
[19]
  IC50: 46.7 µM (not active)
